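Cells were grown in 96-well plates and exposed to each compound for 48 hours at five concentrations; endpoints were interpolated linearly between bracketing concentrations, or set to the highest concentration if not reached. At the GI50, growth is halved.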 Calls of active or inactive are those of the source. No stated cut-off is given here; in the data, active = GI50 up to about 1.1 µM and inactive = higher.
What was measured:
Assay in all cases: inhibition of tumour cell growth, NCI panel, 48 h
RXF 631 = tested on: RXF 631
DLD-1 = tested on: DLD-1
SK-MEL-5 = tested on: SK-MEL-5
HCT-15 = tested on: HCT-15
COLO 205 = tested on: COLO 205
OVCAR-3 = tested on: OVCAR-3
HCT-116 = tested on: HCT-116
SR = tested on: SR
KM-20L2 = tested on: KM-20L2
HCC 2998 = tested on: HCC 2998
RXF 393 = tested on: RXF 393
A498 = tested on: A498
TK-10 = tested on: TK-10
SK-OV-3 = tested on: SK-OV-3
NCI-H460 = tested on: NCI-H460
LXFL 529 = tested on: LXFL 529
HOP-18 = tested on: HOP-18
Malme-3M = tested on: Malme-3M
NCI-H226 = tested on: NCI-H226
SNB-19 = tested on: SNB-19
SK-MEL-2 = tested on: SK-MEL-2
NCI-H23 = tested on: NCI-H23
SW-620 = tested on: SW-620
NCI-H522 = tested on: NCI-H522
HOP-62 = tested on: HOP-62
OVCAR-5 = tested on: OVCAR-5
MOLT-4 = tested on: MOLT-4
UACC-62 = tested on: UACC-62
SF-268 = tested on: SF-268
786-0 = tested on: 786-0
M19-MEL = tested on: M19-MEL
IGROV-1 = tested on: IGROV-1
XF498 = tested on: XF498
UO-31 = tested on: UO-31
SF-539 = tested on: SF-539
SK-MEL-28 = tested on: SK-MEL-28
UACC-257 = tested on: UACC-257
SF-295 = tested on: SF-295
OVCAR-8 = tested on: OVCAR-8
HT-29 = tested on: HT-29
HL-60 = tested on: HL-60
SN12C = tested on: SN12C
LOX IMVI = tested on: LOX IMVI
DMS-114 = tested on: DMS-114
M14 = tested on: M14
K562 = tested on: K562
SNB-75 = tested on: SNB-75
EKVX = tested on: EKVX
A549 = tested on: A549
CCRF-CEM = tested on: CCRF-CEM
ACHN = tested on: ACHN
U-251 = tested on: U-251
RPMI-8226 = tested on: RPMI-8226
KM12 = tested on: KM12
CAKI-1 = tested on: CAKI-1
OVCAR-4 = tested on: OVCAR-4
HOP-92 = tested on: HOP-92
SNB-78 = tested on: SNB-78
DMS-273 = tested on: DMS-273

O=C1C(c2ccc(Cl)cc2)=[N+]([O-])c2ccccc21
GI50 (RXF 631): 23.6 µM (inactive) | GI50 (DLD-1): 13.8 µM (inactive) | GI50 (SK-MEL-5): 13.6 µM (inactive) | GI50 (HCT-15): 11.4 µM | GI50 (COLO 205): 17.7 µM (inactive) | GI50 (OVCAR-3): 13.6 µM (inactive) | GI50 (HCT-116): 14.4 µM (inactive) | GI50 (SR): 20.2 µM (inactive) | GI50 (KM-20L2): 25.4 µM (inactive) | GI50 (HCC 2998): > 100 µM (inactive) | GI50 (RXF 393): 11 µM (inactive) | GI50 (A498): 24.7 µM (inactive) | GI50 (TK-10): 16.3 µM (inactive) | GI50 (SK-OV-3): > 100 µM (inactive) | GI50 (NCI-H460): 18.8 µM (inactive) | GI50 (LXFL 529): 5.36 µM (inactive) | GI50 (HOP-18): 21.8 µM (inactive) | GI50 (Malme-3M): 17.8 µM (inactive) | GI50 (NCI-H226): 19.1 µM (inactive) | GI50 (SNB-19): 23.3 µM (inactive) | GI50 (SK-MEL-2): 23.1 µM (inactive) | GI50 (NCI-H23): 16.1 µM (inactive) | GI50 (SW-620): 39.7 µM (inactive) | GI50 (NCI-H522): 10 µM (inactive) | GI50 (HOP-62): 29.4 µM (inactive) | GI50 (OVCAR-5): 22.9 µM (inactive) | GI50 (MOLT-4): 12.4 µM (inactive) | GI50 (UACC-62): 18.3 µM (inactive) | GI50 (SF-268): 15.4 µM (inactive) | GI50 (786-0): 16.9 µM (inactive) | GI50 (M19-MEL): > 100 µM (inactive) | GI50 (IGROV-1): 18.1 µM (inactive) | GI50 (XF498): 20.4 µM (inactive) | GI50 (UO-31): > 100 µM (inactive) | GI50 (SF-539): 21 µM (inactive) | GI50 (SK-MEL-28): 14.9 µM (inactive) | GI50 (UACC-257): 16 µM (inactive) | GI50 (SF-295): 12.1 µM (inactive) | GI50 (OVCAR-8): 10.7 µM (inactive) | GI50 (HT-29): 19.8 µM (inactive) | GI50 (HL-60): 3.3 µM (inactive) | GI50 (SN12C): 18.1 µM (inactive) | GI50 (LOX IMVI): 14 µM (inactive) | GI50 (DMS-114): 4.07 µM (inactive) | GI50 (M14): 14.2 µM (inactive) | GI50 (K562): 13.4 µM (inactive) | GI50 (SNB-75): 21.4 µM (inactive) | GI50 (EKVX): 15.3 µM (inactive) | GI50 (A549): 17.5 µM (inactive) | GI50 (CCRF-CEM): 4.36 µM (inactive) | GI50 (ACHN): 15.2 µM (inactive) | GI50 (U-251): 16.7 µM (inactive) | GI50 (RPMI-8226): 14.9 µM (inactive) | GI50 (KM12): 15.2 µM (inactive)

Cc1ccc(S(=O)(=O)C(CC(=O)N2CCCC2)C(=O)c2ccccc2)cc1 (stereo unspecified)
GI50 (RXF 631): > 100 µM (inactive) | GI50 (DLD-1): 71.1 µM (inactive) | GI50 (SK-MEL-5): > 100 µM (inactive) | GI50 (COLO 205): > 100 µM (inactive) | GI50 (OVCAR-3): > 100 µM (inactive) | GI50 (HCT-116): 55.6 µM (inactive) | GI50 (SR): 25.5 µM (inactive) | GI50 (CAKI-1): 46.9 µM (inactive) | GI50 (HCC 2998): > 100 µM (inactive) | GI50 (RXF 393): > 100 µM (inactive) | GI50 (TK-10): > 100 µM (inactive) | GI50 (NCI-H460): > 100 µM (inactive) | GI50 (LXFL 529): 38.5 µM (inactive) | GI50 (HOP-18): > 100 µM (inactive) | GI50 (Malme-3M): > 100 µM (inactive) | GI50 (SNB-19): > 100 µM (inactive) | GI50 (OVCAR-4): > 100 µM (inactive) | GI50 (HOP-92): > 100 µM (inactive) | GI50 (NCI-H23): > 100 µM (inactive) | GI50 (SW-620): 37.7 µM (inactive) | GI50 (NCI-H522): 89.3 µM (inactive) | GI50 (HOP-62): > 100 µM (inactive) | GI50 (OVCAR-5): > 100 µM (inactive) | GI50 (MOLT-4): 25.6 µM (inactive) | GI50 (UACC-62): > 100 µM (inactive) | GI50 (SF-268): 83.4 µM (inactive) | GI50 (786-0): > 100 µM (inactive) | GI50 (IGROV-1): > 100 µM (inactive) | GI50 (XF498): > 100 µM (inactive) | GI50 (UO-31): > 100 µM (inactive) | GI50 (SF-539): > 100 µM (inactive) | GI50 (SK-MEL-28): > 100 µM (inactive) | GI50 (SNB-78): 54.6 µM (inactive) | GI50 (UACC-257): > 100 µM (inactive) | GI50 (SF-295): > 100 µM (inactive) | GI50 (OVCAR-8): > 100 µM (inactive) | GI50 (HT-29): > 100 µM (inactive) | GI50 (HL-60): 19.5 µM (inactive) | GI50 (SN12C): > 100 µM (inactive) | GI50 (DMS-273): 97.1 µM (inactive) | GI50 (LOX IMVI): 44.5 µM (inactive) | GI50 (DMS-114): > 100 µM (inactive) | GI50 (M14): > 100 µM (inactive) | GI50 (K562): 24.9 µM (inactive) | GI50 (SNB-75): 80.2 µM (inactive) | GI50 (A549): > 100 µM (inactive) | GI50 (CCRF-CEM): 24.6 µM (inactive) | GI50 (ACHN): > 100 µM (inactive) | GI50 (U-251): > 100 µM (inactive) | GI50 (KM12): > 100 µM (inactive)

Cc1ccc(/C=C/C(=O)c2sc(-c3nc(C)c(C(=O)/C=C/c4ccc(C)cc4)s3)nc2C)cc1
GI50 (RXF 631): > 100 µM (inactive) | GI50 (DLD-1): > 100 µM (inactive) | GI50 (SK-MEL-5): > 100 µM (inactive) | GI50 (HCT-15): > 100 µM | GI50 (COLO 205): > 100 µM (inactive) | GI50 (OVCAR-3): > 100 µM (inactive) | GI50 (CAKI-1): > 100 µM (inactive) | GI50 (KM-20L2): > 100 µM (inactive) | GI50 (HCC 2998): > 100 µM (inactive) | GI50 (RXF 393): > 100 µM (inactive) | GI50 (A498): > 100 µM (inactive) | GI50 (TK-10): > 100 µM (inactive) | GI50 (SK-OV-3): > 100 µM (inactive) | GI50 (NCI-H460): > 100 µM (inactive) | GI50 (HOP-18): > 100 µM (inactive) | GI50 (Malme-3M): > 100 µM (inactive) | GI50 (NCI-H226): > 100 µM (inactive) | GI50 (SK-MEL-2): > 100 µM (inactive) | GI50 (HOP-92): > 100 µM (inactive) | GI50 (NCI-H23): > 100 µM (inactive) | GI50 (SW-620): > 100 µM (inactive) | GI50 (NCI-H522): 97.5 µM (inactive) | GI50 (HOP-62): > 100 µM (inactive) | GI50 (OVCAR-5): > 100 µM (inactive) | GI50 (MOLT-4): > 100 µM (inactive) | GI50 (UACC-62): > 100 µM (inactive) | GI50 (SF-268): > 100 µM (inactive) | GI50 (786-0): > 100 µM (inactive) | GI50 (M19-MEL): > 100 µM (inactive) | GI50 (IGROV-1): > 100 µM (inactive) | GI50 (UO-31): > 100 µM (inactive) | GI50 (SF-539): > 100 µM (inactive) | GI50 (SK-MEL-28): > 100 µM (inactive) | GI50 (SNB-78): > 100 µM (inactive) | GI50 (UACC-257): > 100 µM (inactive) | GI50 (SF-295): > 100 µM (inactive) | GI50 (OVCAR-8): > 100 µM (inactive) | GI50 (HT-29): > 100 µM (inactive) | GI50 (HL-60): > 100 µM (inactive) | GI50 (SN12C): > 100 µM (inactive) | GI50 (DMS-273): > 100 µM (inactive) | GI50 (LOX IMVI): > 100 µM (inactive) | GI50 (DMS-114): > 100 µM (inactive) | GI50 (K562): > 100 µM (inactive) | GI50 (SNB-75): 86.5 µM (inactive) | GI50 (EKVX): > 100 µM (inactive) | GI50 (A549): > 100 µM (inactive) | GI50 (CCRF-CEM): > 100 µM (inactive) | GI50 (ACHN): > 100 µM (inactive) | GI50 (U-251): > 100 µM (inactive) | GI50 (RPMI-8226): > 100 µM (inactive) | GI50 (KM12): > 100 µM (inactive)

From ChEMBL document CHEMBL1201862, “PubChem BioAssay data set” (2004)
